The results in this text go back to article PMC5451472, “Novel Locally Active Estrogens Accelerate Cutaneous Wound Healing-Part 2” (Scientific Reports, 2017).

Assay [1] concerns the target T1, ERs (Homo sapiens, UniProt P03372).
T1 construct: endogenous in cells; host or cells: MCF-7, clone ERE-Luc B17 (only the luciferase reporter is transfected)
T1 sequence (P03372 1-595): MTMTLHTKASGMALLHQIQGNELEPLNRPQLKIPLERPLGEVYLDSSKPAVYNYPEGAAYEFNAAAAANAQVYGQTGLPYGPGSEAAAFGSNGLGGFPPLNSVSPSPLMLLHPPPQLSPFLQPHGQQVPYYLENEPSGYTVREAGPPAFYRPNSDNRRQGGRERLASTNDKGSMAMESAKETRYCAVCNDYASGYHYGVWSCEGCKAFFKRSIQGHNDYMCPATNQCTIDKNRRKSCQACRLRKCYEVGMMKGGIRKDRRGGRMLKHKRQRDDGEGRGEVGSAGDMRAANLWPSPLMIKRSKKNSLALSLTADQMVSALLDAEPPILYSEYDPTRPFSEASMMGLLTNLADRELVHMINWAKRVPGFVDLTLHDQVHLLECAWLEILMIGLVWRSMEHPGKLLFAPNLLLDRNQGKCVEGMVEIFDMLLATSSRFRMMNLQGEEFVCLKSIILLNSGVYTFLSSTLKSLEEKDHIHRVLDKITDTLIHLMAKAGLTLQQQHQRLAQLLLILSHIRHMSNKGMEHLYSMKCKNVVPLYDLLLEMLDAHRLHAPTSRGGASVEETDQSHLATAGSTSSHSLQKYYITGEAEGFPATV
As to the kind of experiment: ER transactivation assay in ERE-Luc B17 cells (luciferase reporter). In kind it is cell-based. On the procedure: The ability of the novel compounds to transcriptionally activate ERs was tested in ERE-Luc B 17 cells, a clone of the breast cancer cell line MCF-7 stably transfected with a reporter constituted by the luciferase gene driven by an estrogen-regulated synthetic promoter previously generated and tested in our laboratories.
Cells were split twice a week by seeding 2 × 10^6 cells in 100 mm diameter Petri (Corning) dishes.
After 24 h cells were rinsed once with PBS before preparing the protein extract for the determination of luciferase content. Each experiment was carried out in duplicate.
(§1) Luciferase enzymatic activity was measured in cells or selected tissue homogenates by a luminometer (Glomax™96 microplate luminometer; Promega) using Promega standard luciferin (Beetle Luciferin Potassium Salt) and expressed as Relative Light Units over 10 sec/μg protein (RLU/μg protein). Proteins concentrations were measured by Bradford.
Analysis of transactivation data and calculation of EC50 values were performed by means of sigmoidal dose-response (variable slope) using PRISM5 software (GraphPad Software Inc.).
Background: Reporter assays use an easily measured gene product as a stand-in for the process of interest.

Assay [2] concerns MITO-Luc mice. As to the kind of experiment: Macrophage count (Iba1 immunohistochemistry) around the wound site. In kind it is in vivo, mouse. Particulars: 200 µg/kg s.c., 72 hours after treatment. On the procedure: To better understand whether the healing effect of 1e could be attributed to its anti-inflammatory action, at the end of in vivo imaging (72 hours after treatments) the tissue surrounding the wound was dissected and subjected immunohistochemical analysis using the pan macrophage marker Iba1. […] This observation confirmed that the estrogenic compounds were able to regulate the immune response at local level.
In particular, the criteria for the assignation of granulations value are: 1 = wound bed partially covered with granulation tissue; 2 = thin granulation over the whole wound bed; 3 = thick granulation over the whole wound bed. Evaluation of macrophages was done through a specific antibody and digital image analysis: 4 µm sections from each wound healing sample were immunostained with primary rabbit […] antibody against Iba1 antigen (Wako; #019-19741) to assess the number of macrophages.
The number of positive cells were counted using the ImageJ analysis program (http://rsb.info.nih.gov/ij/) in 400x microscopic fields selected at the periphery of the wound area.

The subject of assay [3] is ER transcriptional activity. Description: Ex vivo BLI and luciferase enzymatic assay in organs of ERE-Luc mice. Also on record: species or system mouse. Particulars: 200 µg/kg s.c., 6 hours after treatment. On the procedure: We next examined photon emission in a series of organs excised from the mice euthanized at 6 hours after treatment by measuring photon emission with the CCD camera (Fig. 6a) and by the more sensitive enzymatic assay in tissue extracts of each organ (Fig. 6b).
The selected organs were dissected from the animals who had received luciferine 20 min before euthanasia. The tissues were immediately subjected to ex vivo imaging session of 5 minutes. Photon emission was quantified with the Living Image Software (Caliper, PerkinElmer company) for each tissue and expressed as p/s/cm2/sr.
as §1

In assay [4] the test system is MITO-Luc mice. Description: Wound area measurement in MITO-Luc mice. Type of assay: in vivo, mouse. Particulars: 200 µg/kg s.c., 72 hours after treatment (vehicle 50%). On the procedure: To investigate to which extent the increased proliferation observed after the pharmacological treatments was functional to the healing process, we measured the size of the wound (Fig. 9a).
Ovariectomy was carried out as previously described. Wound healing was done after shaving by VEET depilatory cream a day before the treatment. The 1 cm full-thickness incisional wound was made through the skin and panniculus carnosus muscle of ovariectomized MITO-luc using a surgical scalpel (blade n°10, carbon steel, Swann-Morton Ltd). Round full-thickness wounds were done by cutting out a section of full-thickness skin (around 9 mm in diameter) using fine scissors on the dorsal skin of the isoflurane-anesthetized animal. For in vivo treatment the compounds were administered onto the subcutaneous area surrounding the wound by multiple subcutaneous injection, immediately after the generation of the wound.

A word on the EC50: it is the concentration giving half of the maximal effect. As a reminder, the fold induction is the signal under treatment as a multiple of the control signal. Read a high fold induction as a large rise in signal. Consider `CCCCOC(=O)CCC#C[C@]1(O)CC[C@H]2[C@@H]3CCc4cc(O)ccc4[C@H]3CC[C@@]21C` [1e, 3,17β-Hydroxy-17α-(4′carbobutoxy-1′-butyn-1′-yl)estra-1,3,5-(10)-triene], for which the EC50 in assay [1] (ERE-Luc B17 cells (MCF-7 clone), 24 h, luciferase activity, sigmoidal dose-response, read-out: EC50 (transactivation potency)) turned out to be 1.3 nM. For the same compound, in assay [1] (ERE-Luc B17 cells, 10^-5 M of compound respect to vehicle), the fold induction at 10 µM was found to be 2.6. Besides, the “number of macrophages (Iba1 positive) in the wound area lower than in controls” value in assay [2] is reported as 25%. In addition, the “bioluminescence in excised organs (ex vivo BLI, enzymatic luciferase assay)” value in assay [3] was “did not induce bioluminescence in any of the organs investigated”. The same compound had a wound area reduction in assay [4] of 73%.
